Source: US20130303788A1, “METHOD OF PRODUCING BIPHENOLIC COMPOUND, NOVEL BIPHENYL COMPOUND AND SYNTHESIS METHOD THEREOF, AND PHARMACEUTICAL COMPOSITION FOR TREATING PARKINSON'S DISEASE” (Tzu Chi University, priority 2012, published 2013)

Experiments:
[1] = tested on: SH-SY5Y human neuroblastoma cells; assay: Effects on oxidative stress (TBHP or CHP), MTT assay; type: cell-based; conditions: for prevention of cell death (relative cell viability) after exposure to CHP / prevention of cell death (relative cell viability) after exposure to TBHP: 10 μM for 30 minutes, vs pathological control, FIG. 9; for prevention of cell death (relative cell viability) after exposure to CHP: then CHP 300 μM for 3 hours; for prevention of cell death (relative cell viability) after exposure to TBHP: then TBHP 300 μM for 3 hours
Protocol: (§1) 3-(4,5-Dimethylthiazol-2-yl)-2,5-diphenyltetrazolium bromide (MTT) assay was conducted generally as follows. A MTT solution was added to culture of the cells in the respective well so that a MTT concentration of 0.5 mg/mL was reached, followed by cultivation for 4 hours. The liquid in the respective well was removed, and dimethylsulfoxide (DMSO) was added into the respective well to dissolve formazan dye. Absorbance of the mixture in the respective well at 570 nm (OD570) was measured using an OPTImax microplate reader (Molecular Devices).
The SH-SY5Y human neuroblastoma cells were respectively treated with products 1, 2, 3, 4, 5, 7, and 3,3′-diallyl-biphenyl-4,4′-diol (compound 55) (10 μM) for 30 minutes. 3,3′-diallyl-biphenyl-4,4′-diol (compound 55) was prepared from commercially available 4,4′-biphenol (compound 54) generally according to the method as described in Ablard, F. et al., Bioorg. Med. Chem. Lett. 2007, 17, 4428. Subsequently, the SH-SY5Y human neuroblastoma cells were exposed to cumene hydroperoxide (CHP) or tert-butyl hydroperoxide (TBHP) (300 μM, Riedel-de Haen) for 3 hours after the treatment with the respective biphenolic compound of formula (I).
(§2) Cell viability was evaluated as follows. The SH-SY5Y human neuroblastoma cells were subjected to the MTT assay as described in section 1 of General Procedures. The relative cell viability (%) was calculated by substituting the absorbance into the following formula:
(§3) where D=relative cell viability • E=OD570 of the pathological control, or the SH-SY5Y human neuroblastoma cells treated with the respective biphenolic compound of formula (I) • F=OD570 of the normal control The obtained data were subjected to the statistical analysis as described in section 5 of General Procedures.

[2] = tested on: excitotoxicity induced by excitatory amino acids; conditions: Lin Yi-Ruu et al. (2006); cited from earlier work
inflammatory pain = conditions: Lin Yi-Ruu et al. (2007); cited from earlier work
[3] = tested on: SH-SY5Y human neuroblastoma cells; assay: Effects on MPP+ neurotoxicity, MTT assay; type: cell-based; conditions: 10 μM or 30 μM; MPP+ 1 mM for 24 hours; FIG. 10
Protocol: as §1
SH-SY5Y human neuroblastoma cells were exposed to neurotoxic 1-methyl-4-phenylpyridinium (MPP^+) (1 mM) for 24 hours, while the same were treated with the respective one of products 1, 2, 3, 4, 5, 7, and 3,3′-diallyl-biphenyl-4,4′-diol (compound 55) (10 μM or 30 μM).
as §2
as §3, with “G=relative” for “D=relative”, “H=OD570” for “E=OD570”, “I=OD570” for “F=OD570”

[4] = tested on: mouse model of PD (6-OHDA unilateral striatal lesion); assay: Apomorphine-induced rotation test in 6-OHDA mouse model of PD; type: in vivo, NMRI mice
Protocol: The respective NMRI mouse was anesthetized with ketamine ([…], intraperitoneally). Subsequently, the respective NMRI mouse was placed into a stereotactic frame with nose and ear bars specially designed for mice. 6-hydroxydopamine (6-OHDA) was injected with saline containing 0.02% ascorbic acid (as a vehicle) into the right striatum of the respective NMRI mouse so that unilateral striatal lesion was induced (i.e., damage to dopaminergic neurons in the unilateral striatum was induced). The injection was conducted at a rate of 1 μL/minute using a Hamilton syringe at the following coordinates: AP: −0.9 mm; ML: −1.9 mm; DV: −2.2 mm with respect to bregma, and a final dose of 15 μg was administered. The needle was left standing for 5 minutes after the injection was finished, and was slowly withdrawn.
The respective NMRI mouse was allowed to habituate to the ambient environment for 10 minutes before the apomorphine-induced rotation test was performed. Apomorphine was then injected intraperitoneally into the respective NMRI mouse at a dose of 0.5 mg/kg. The respective NMRI mouse was placed in a glass bowl with a diameter of 20 cm and was attached to an automatic rotometer (TSE, Bad Homburg, Germany) via a specially designed harness. Each circular movement exceeding 30° was recorded. The contralateral movements (toward the nonlesioned side) and ipsilateral movements (toward the lesioned side) of the NMRI mice were counted during a period of 60 minutes. The net rotation was calculated according to the following formula:
where A=net rotation • B=the total number of ipsilateral movements during the period of 60 minutes • C=the total number of contralateral movements during the period of 60 minutes 4. Determination of TH (Tyrosine Hydroxylase) Expression Level and iNOS (Inducible Nitric Oxide Synthase) Expression Level: […]
6-OHDA was injected into NMRI mice according to the method as described in section 2 of General procedures. Product 1 or product 2 was administered intraperitoneally to the respective NMRI mouse at a dose of 5 mg/kg, 1 mg/kg, 0.5 mg/kg, 0.1 mg/kg, or 0.05 mg/kg for 14 consecutive days, starting on Day 7 after the 6-OHDA injection. NMRI mice into which a vehicle (saline containing 0.02% ascorbic acid) was injected (generally according to the method as described in section 2 of General Procedures, except that 6-OHDA was not injected), and which were not treated with product 1 or product 2 after the injection of the vehicle, served as a sham operated control. NMRI mice into which 6-OHDA was injected and which were not treated with product 1 or product 2 after the 6-OHDA injection served as a pathological control. The rotational behavior of the NMRI mice was evaluated using the apomorphine-induced rotation test as described in section 3 of General Procedures on Days 7, 14, and 21 after the 6-OHDA injection.

[5] = tested on: TH (Tyrosine Hydroxylase); assay: TH expression level (TH immunohistochemistry) in 6-OHDA mouse model of PD; type: in vivo, NMRI mice; conditions: i.p. 14 consecutive days starting Day 7, Day 21 after 6-OHDA, 16
Protocol: The respective NMRI mouse was deeply anaesthetized with thiopental (50 mg/kg, intraperitoneally). The respective NMRI mouse was perfused transcardially with a heparin solution (0.05% heparin in 0.1 M PBS), and was subsequently perfused with 100 mL of ice-cold fixative (4% paraformaldehyde in 0.1 M PBS). The brain of the respective NMRI mouse was removed and was postfixed in the same ice-cold fixative for 12 hours, followed by dehydration in 30% sucrose in 0.1 M PBS. The brain was frozen and was subjected to tissue slicing. Serial coronal sections (a thickness of 20 μm) were cut on a freezing microtome and were placed in PBS. The sections were later processed for free-floating TH or iNOS immunohistochemistry.
The sections were rinsed three times with PBS (30 minutes for each time), were treated with 3% H2O2/10% methanol in PBS for 30 minutes for quenching the endogenous peroxidase activity, and were rinsed three times with PBS. After preincubation with 0.5% normal goat serum (NGS)/0.2% Triton in PBS, the sections were incubated with a primary antibody (anti-TH antibody or anti-iNOS antibody, 1:5000, Novus Biologicals, Inc., Littleton, Colo., USA) in 0.5% NGS/PBS at 4° C. for 16-18 hours. After being rinsed three times with PBS, the sections were incubated with a biotinylated goat anti-rabbit IgG (1:200) in PBS for 1 hour. Subsequently, the sections were rinsed three times with PBS and were stained with 0.05% diaminobenzidine/0.03% H2O2 in PBS for 5 minutes. The respective section was placed on a gelatin-coated slide, dehydrated through ascending concentrations of alcohol, and covered with a slipcover for observation under a light microscope.
The obtained data were subjected to the statistical analysis as described in section 5 of General Procedures. TH expression level in the striatum was determined according to the method as described in section 4 of General Procedures.
TH expression level in the striatum and the substantia nigra (SN), and iNOS expression level in the striatum were determined according to the method as described in section 4 of General Procedures on Day 21 after the injection of 6-OHDA or the vehicle.
In addition, the optical density regarding the lesioned and unlesioned sites in the striatum and SN of the NMRI mice (e.g., the sham operated control, the pathological control, and the NMRI mice treated with product 1) was determined from the obtained photomicrographs illustrating TH expression level via ImageJ software (National Institutes of Health). The relative optical density was calculated using the following formula:
where J=relative optical density • K=optical density of the lesioned site • L=optical density of the unlesioned site

SMILES | prevention of cell death (relative cell viability) after exposure to CHP [1] | prevention of cell death (relative cell viability) after exposure to TBHP [1] | concentration dependence of alleviation of MPP+ cytotoxicity [3] | further results
C=CCc1cc(-c2ccc(O)c(CC=C)c2)ccc1O [compound 55, 3,3′-diallyl-biphenyl-4,4′-diol] | significantly prevented cell death | significantly prevented cell death | – | –
C=CCc1ccc(O)c(-c2cc(CC=C)ccc2O)c1 [magnolol, reference compound] | – | – | – | neuroprotective effects via anti-oxidative abilities and antagonist actions against excitotoxicity [2]: able to exert neuroprotective effects; alleviation of inflammatory pain in an animal model (inflammatory pain): effective in alleviating inflammatory pain
C=CCc1cc(-c2cc(CCC)ccc2O)ccc1O [product 2, 3′-Allyl-5-propyl-biphenyl-2,4′-diol] | significantly prevented cell death | significantly prevented cell death | alleviated the cytotoxicity of MPP^+ in a concentration-dependent manner | rank among the tested biphenolic compounds in preventing cell death, CHP ([1]; 10 μM, CHP 300 μM 3 hours): the most effective in preventing cell death among them; rank among the tested biphenolic compounds in preventing cell death, TBHP ([1]; 10 μM, TBHP 300 μM 3 hours): the most effective in preventing cell death among them; unilateral rotations (apomorphine-induced), subchronic post-treatment, 0.1 mg/kg ([4]; 0.1 mg/kg i.p., 14 consecutive days starting Day 7 after 6-OHDA, FIG. 13): significantly inhibited unilateral rotations; unilateral rotations (apomorphine-induced), subchronic post-treatment, 0.5 mg/kg ([4]; 0.5 mg/kg i.p., 14 consecutive days starting Day 7 after 6-OHDA, FIG. 13): significantly inhibited unilateral rotations; unilateral rotations (apomorphine-induced), subchronic post-treatment, 1 mg/kg ([4]; 1 mg/kg i.p., 14 consecutive days starting Day 7 after 6-OHDA, FIG. 13): significantly inhibited unilateral rotations; restoring activity against neurotoxin-induced motor dysfunction compared with product 1 ([4]; subchronic post-treatment, 14 days starting Day 7 after 6-OHDA): more potent restoring activity; loss of TH-ir fibers in the striatum, subchronic post-treatment ([5]; FIGS. 14, 15(A)): significantly alleviated the loss of TH-ir fibers; loss of TH-ir fibers in the substantia nigra (SN), subchronic post-treatment ([5]; FIGS. 14, 15(B)): significantly alleviated the loss of TH-ir fibers
CCCc1ccc(O)c(-c2ccc(O)c(CCC)c2)c1 [product 3, 5,3′-Dipropyl-biphenyl-2,4′-diol] | significantly prevented cell death | significantly prevented cell death | alleviated the cytotoxicity of MPP^+ in a concentration-dependent manner | –
C=CCc1ccc(O)c(-c2ccc(O)c(CCC)c2)c1 [product 4, 5-Allyl-3′-propyl-biphenyl-2,4′-diol] | significantly prevented cell death | significantly prevented cell death | alleviated the cytotoxicity of MPP^+ in a concentration-dependent manner | –
C#CCc1ccc(O)c(-c2ccc(O)c(CC=C)c2)c1 [product 5, 3′-Allyl-5-prop-2-ynyl-biphenyl-2,4′-diol] | significantly prevented cell death | significantly prevented cell death | alleviated the cytotoxicity of MPP^+ in a concentration-dependent manner | –
C=CCc1cc(-c2cccc(O)c2CC=C)ccc1O [product 7, 2,3′-Diallyl-biphenyl-3,4′-diol] | significantly prevented cell death | significantly prevented cell death | alleviated the cytotoxicity of MPP^+ in a concentration-dependent manner | –
